For the first assay, the target named is T1, Cannabinoid-1 receptor (CB1R) (Rattus norvegicus, UniProt P20272).
T1 construct: The tissue obtained from the brain of SD rats was homogenized; from tissue; host or cells: brain of SD rats (membrane pellet of the homogenate)
T1 sequence (P20272 whole entry): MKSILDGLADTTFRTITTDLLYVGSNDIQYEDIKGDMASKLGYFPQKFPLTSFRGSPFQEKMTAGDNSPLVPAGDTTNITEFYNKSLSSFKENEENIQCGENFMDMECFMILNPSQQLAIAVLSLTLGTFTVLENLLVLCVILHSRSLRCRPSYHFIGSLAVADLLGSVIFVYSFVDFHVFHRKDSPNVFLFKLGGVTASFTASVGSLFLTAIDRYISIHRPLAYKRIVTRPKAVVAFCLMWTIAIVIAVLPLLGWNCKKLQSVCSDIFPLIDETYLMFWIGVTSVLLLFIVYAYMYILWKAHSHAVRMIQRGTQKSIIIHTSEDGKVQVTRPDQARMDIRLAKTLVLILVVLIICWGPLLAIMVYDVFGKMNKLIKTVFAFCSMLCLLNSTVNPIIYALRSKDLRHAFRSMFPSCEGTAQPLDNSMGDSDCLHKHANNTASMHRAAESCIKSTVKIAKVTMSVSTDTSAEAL
The assay can be described thus: Cannabinoid-1 receptor (CB1R) binding affinity assay ([3H]CP-55940, rat CB-1 receptor binding protocol). Conditions: IC50(nM), brain tissue of SD rats, [3H]CP-55940, 30° C. 60 min.
What is called IC50 is the concentration at which inhibition is half-maximal. The compound `CCCCc1cnc(-c2nn(-c3ccc(Cl)cc3Cl)c(-c3ccc(Cl)cc3)c2C)o1` [Example 639, 5-butyl-2-(5-(4-chlorophenyl)-1-(2,4-dichlorophenyl)-4-methyl-1H-pyrazol-3-yl)oxazole] registered a half-maximal inhibitory concentration (IC50) of 57.2 nM.
The compound `Cc1c(-c2nc3c(o2)CCCC3)nn(-c2ccc(Cl)cc2Cl)c1-c1ccc(Cl)cc1` [Example 642, 2-(5-(4-chlorophenyl)-1-(2,4-dichlorophenyl)-4-methyl-1H-pyrazol-3-yl)-4,5,6,7-tetrahydrobenzo[d]oxazole] displayed an IC50 of 44.2 nM.
As to `Cc1c(-c2ncc(C(C)(C)C)o2)nn(-c2ccc(Cl)cc2Cl)c1-c1ccc(Cl)cc1` [Example 644, 5-tert-butyl-2-(5-(4-chlorophenyl)-1-(2,4-dichlorophenyl)-4-methyl-1H-pyrazol-3-yl)oxazole], the concentration for half-maximal inhibition (IC50) was determined as 14.2 nM.

Staying with this assay, now noted: brain tissue of SD rats, [3H]CP-55940, 30° C. 60 min; read-out: IC50.
As for `Cc1c(-c2nnc(C3(C(F)(F)F)CC3)o2)nn(-c2ccc(Cl)cc2Cl)c1-c1ccc(Cl)cc1` [Example 132, 2-(5-(4-chlorophenyl)-1-(2,4-dichlorophenyl)-4-methyl-1H-pyrazol-3-yl)-5-(1-(trifluoromethyl)cyclopropyl)-1,3,4-oxadiazole], the IC50 was 8.53 nM.
Take `CCn1nc(-c2nn(-c3ccc(Cl)cc3Cl)c(-c3ccc(Cl)cc3)c2C)nc1C1CC1` [Example 629, 3-(5-(4-chlorophenyl)-1-(2,4-dichlorophenyl)-4-methyl-1H-pyrazol-3-yl)-5-cyclopropyl-1-ethyl-1H-1,2,4-triazole]: the IC50 is 301 nM.
In the case of `Cc1c(-c2nc(C3CC3)n(C(C)C)n2)nn(-c2ccc(Cl)cc2Cl)c1-c1ccc(Cl)cc1` [Example 630, 3-(5-(4-chlorophenyl)-1-(2,4-dichlorophenyl)-4-methyl-1H-pyrazol-3-yl)-5-cyclopropyl-1-isopropyl-1H-1,2,4-triazole], the IC50 was determined as 573 nM.
Still for that read-out and setting: the value for `CCC(C)c1nc(-c2nn(-c3ccc(Cl)cc3Cl)c(-c3ccc(Cl)cc3)c2C)nn1CC` (stereo not drawn) [Example 632, 5-sec-butyl-3-(5-(4-chlorophenyl)-1-(2,4-dichlorophenyl)-4-methyl-1H-pyrazol-3-yl)-1-ethyl-1H-1,2,4-triazole] was 834 nM; that for `CCC(C)c1nc(-c2nn(-c3ccc(Cl)cc3Cl)c(-c3ccc(Cl)cc3)c2C)nn1C(C)C` (stereo not drawn) [Example 633, 5-sec-butyl-3-(5-(4-chlorophenyl)-1-(2,4-dichlorophenyl)-4-methyl-1H-pyrazol-3-yl)-1-isopropyl-1H-1,2,4-triazole] was 60.9 nM; that for `Cc1c(-c2nc(C(C)C)n(C)n2)nn(-c2ccc(Cl)cc2Cl)c1-c1ccc(Cl)cc1` [Example 634, 3-(5-(4-chlorophenyl)-1-(2,4-dichlorophenyl)-4-methyl-1H-pyrazol-3-yl)-5-isopropyl-1-methyl-1H-1,2,4-triazole] was 289 nM.
On the same count and under the same terms, next, `CCn1nc(-c2nn(-c3ccc(Cl)cc3Cl)c(-c3ccc(Cl)cc3)c2C)nc1C(C)C` [Example 635, 3-(5-(4-chlorophenyl)-1-(2,4-dichlorophenyl)-4-methyl-1H-pyrazol-3-yl)-5-isopropyl-1-ethyl-1H-1,2,4-triazole]: 712 nM; `Cc1c(-c2nc(C(C)C)n(C(C)C)n2)nn(-c2ccc(Cl)cc2Cl)c1-c1ccc(Cl)cc1` [Example 636, 3-(5-(4-chlorophenyl)-1-(2,4-dichlorophenyl)-4-methyl-1H-pyrazol-3-yl)-1,5-diisopropyl-1H-1,2,4-triazole]: 851 nM.
Consider `Cc1c(-c2ncc(C3CCCCC3)o2)nn(-c2ccc(Cl)cc2Cl)c1-c1ccc(Cl)cc1` [Example 638, 2-(5-(4-chlorophenyl)-1-(2,4-dichlorophenyl)-4-methyl-1H-pyrazol-3-yl)-5-cyclohexyloxazole], for which the half-inhibitory concentration (IC50) stood at 93.9 nM.
For `CCc1cnc(-c2nn(-c3ccc(Cl)cc3Cl)c(-c3ccc(Cl)cc3)c2C)o1` [Example 640, 2-(5-(4-chlorophenyl)-1-(2,4-dichlorophenyl)-4-methyl-1H-pyrazol-3-yl)-5-ethyloxazole], the IC50 was determined as 51.4 nM.
With `Cc1c(-c2ncc(CC(C)C)o2)nn(-c2ccc(Cl)cc2Cl)c1-c1ccc(Cl)cc1` [Example 641, 2-(5-(4-chlorophenyl)-1-(2,4-dichlorophenyl)-4-methyl-1H-pyrazol-3-yl)-5-isobutyloxazole], the IC50 is 40.6 nM.
As for `Cc1c(-c2ncc(C3CCCC3)o2)nn(-c2ccc(Cl)cc2Cl)c1-c1ccc(Cl)cc1` [Example 643, 2-(5-(4-chlorophenyl)-1-(2,4-dichlorophenyl)-4-methyl-1H-pyrazol-3-yl)-5-cyclopentyloxazole], the IC50 is 65.5 nM.
`Cc1c(-c2ncc(CC(C)C)s2)nn(-c2ccc(Cl)cc2Cl)c1-c1ccc(Cl)cc1` [Example 646, 2-(5-(4-chlorophenyl)-1-(2,4-dichlorophenyl)-4-methyl-1H-pyrazol-3-yl)-5-isobutylthiazole]: the concentration for half-maximal inhibition (IC50) is 112 nM.
As for `Cc1c(-c2ncc(C3CCCC3)s2)nn(-c2ccc(Cl)cc2Cl)c1-c1ccc(Cl)cc1` [Example 648, 2-(5-(4-chlorophenyl)-1-(2,4-dichlorophenyl)-4-methyl-1H-pyrazol-3-yl)-5-cyclopentylthiazole], the half-maximal inhibitory concentration (IC50) was determined as 69.4 nM.
Regarding `Cc1c(-c2ncc(C(C)(C)C)s2)nn(-c2ccc(Cl)cc2Cl)c1-c1ccc(Cl)cc1` [Example 649, 5-tert-butyl-2-(5-(4-chlorophenyl)-1-(2,4-dichlorophenyl)-4-methyl-1H-pyrazol-3-yl)thiazole], the IC50 stood at 12.7 nM.
In the case of `Cc1c(-c2cc(C(C)(C)C)on2)nn(-c2ccc(Cl)cc2Cl)c1-c1ccc(Cl)cc1` [Example 650, 5-tert-butyl-3-(5-(4-chlorophenyl)-1-(2,4-dichlorophenyl)-4-methyl-1H-pyrazol-3-yl)isoxazole], the 50% inhibitory concentration (IC50) was 84.1 nM.
Regarding `Cc1c(-c2cc(C(C)(C)C)no2)nn(-c2ccc(Cl)cc2Cl)c1-c1ccc(Cl)cc1` [Example 651, 3-tert-butyl-5-(5-(4-chlorophenyl)-1-(2,4-dichlorophenyl)-4-methyl-1H-pyrazol-3-yl)isoxazole], the concentration for half-maximal inhibition (IC50) was determined as 95.2 nM.

The next assay concerns DIO mice. Nature of the assay: Chronic effects in DIO mice (body weight change, oral administration for 14 days). The assay is classed as in vivo. Conditions: DIO mice (male C57BL/6J), 10 mg/kg, FIG. 1. On the procedure:
Male C57BL/6J mice weighing over 38 g were housed 1 per cage on a 12-/12-h light/dark cycle, had free access to food (rodent sterilizable diet) and water, and were experimentally native before testing. Mice were allowed at least 7 days to habituate to the experimental room prior to testing, and testing was conducted during the light period. Mice were maintained and experiments were conducted in accordance with the Institutional Animal Care.
By oral administration, animals received at a volume of 10 ml/kg for 14 days. All control animals received 10% DMSO dissolved in deionized water.
The vehicles 10% DMSO treated group were comprised of 5 mice in oral test. There were 6 mice in each of the other experimental groups (n=6 in each group). By oral administration, the losing weight was checked everyday for the drug treated group and the control group.
As for `Cc1c(-c2nnc(C3(C(F)(F)F)CC3)o2)nn(-c2ccc(Cl)cc2Cl)c1-c1ccc(Cl)cc1` [Example 132, 2-(5-(4-chlorophenyl)-1-(2,4-dichlorophenyl)-4-methyl-1H-pyrazol-3-yl)-5-(1-(trifluoromethyl)cyclopropyl)-1,3,4-oxadiazole], the “Body weight change from day 0” value is “observed on all days”.
In the case of `CCc1c(-c2nnc(C3(C(F)(F)F)CC3)o2)nn(-c2ccc(Cl)cc2Cl)c1-c1ccc(Cl)cc1` [Example 155, 2-(5-(4-chlorophenyl)-1-(2,4-dichlorophenyl)-4-ethyl-1H-pyrazol-3-yl)-5-(1-(trifluoromethyl)cyclopropyl)-1,3,4-oxadiazole], the “Body weight change from day 0” value is “observed on all days”.
For the compound `CC(C)(C)c1nnc(-c2nn(-c3ccc(Cl)cc3Cl)c(-c3ccc(Cl)cc3)c2Cn2cncn2)s1` [Example 502, 2-(4-((1H-1,2,4-triazol-1-yl)methyl)-5-(4-chlorophenyl)-1-(2,4-dichlorophenyl)-1H-pyrazol-3-yl)-5-tert-butyl-1,3,4-thiadiazole], the “Body weight change from day 0” value is recorded as “observed on all days”.
Take `Cc1c(C(=O)NN2CCCCC2)nn(-c2ccc(Cl)cc2Cl)c1-c1ccc(Cl)cc1` [rimonabant, reference compound]: the “Body weight change from day 0” value was “observed on all days”.

The values are drawn from patent publication US7875647B2, “Heteroaryl-pyrazole derivatives as cannabinoid CB1 receptor antagonists” (Green Cross Corporation, priority 2006, dated 2011).
